In ChEMBL document CHEMBL1135998, “Identification of orally active, potent, and selective 4-piperazinylquinazolines as antagonists of the platelet-derived growth factor receptor tyrosine kinase family” (J Med Chem, 2002):
Values belong to the compound of their own block, whether it stands above or below them.

Key:
in vivo [1] = details: rat, po, 30 mg/kg
in vivo [2] = details: simiiformes, po, 5 mg/kg
in vivo [3] = details: rat, po, 30 mg/kg; remark: listed apart in the source
in vivo [4] = details: dog, po, 7.5 mg/kg
in vivo [5] = details: dog, po, 7.5 mg/kg; remark: listed apart in the source
in vivo [6] = details: rat, po, 30 mg/kg; remark: listed apart in the source
in vivo [7] = details: primates, po, 5 mg/kg
in vivo [8] = details: dog, po, 7.5 mg/kg; remark: listed apart in the source
in vivo [9] = experiment: in vivo
in vivo [10] = details: primates, po, 5 mg/kg; remark: listed apart in the source
in vivo [11] = details: rat, po, 5 mg/kg
in vivo [12] = details: dog, po, 5 mg/kg
in vivo [13] = details: rat, po, 5 mg/kg; remark: listed apart in the source
in vivo [14] = details: dog, po, 5 mg/kg; remark: listed apart in the source
in vivo [15] = details: dog, po, 5 mg/kg; remark: listed apart in the source
in vivo [16] = details: simiiformes, po, 5 mg/kg; remark: listed apart in the source
in vivo [17] = details: simiiformes, plasma, po, 10 mg/kg
in vivo [18] = details: primates, po, 10 mg/kg
in vivo [19] = details: rat, plasma, po, 30 mg/kg
in vivo [20] = details: rat, po, 30 mg/kg; remark: listed apart in the source
in vivo [21] = details: simiiformes, po, 10 mg/kg

- AUC (in vivo [1]): 1700 ng·h/mL
- AUC (in vivo [2]): 2920 ng·h/mL
- bioavailability (in vivo [3]): 23.8%
- bioavailability (in vivo [4]): 97.6%
- Cmax (in vivo [5]): 481 ng/mL
- Cmax (in vivo [6]): 256 ng/mL
- bioavailability (in vivo [7]): 48.9%
- AUC (in vivo [8]): 2690 ng·h/mL
- Cmax (in vivo [9]): 317 ng/mL
Structure (SMILES): COc1cc2c(N3CCN(C(=O)Nc4ccc(OC(C)C)cc4)CC3)ncnc2cc1OCCCN1CCCCC1 [TANDUTINIB]

- bioavailability (in vivo [10]): 18.9%
- AUC (in vivo [2]): 663 ng·h/mL
- bioavailability (in vivo [11]): 20.8%
- Cmax (in vivo [12]): 183 ng/mL
- AUC (in vivo [13]): 176 ng·h/mL
- bioavailability (in vivo [14]): 63.3%
- AUC (in vivo [15]): 1390 ng·h/mL
- Cmax (in vivo [16]): 135 ng/mL
- Cmax (in vivo [9]): 49.2 ng/mL
Structure (SMILES): COc1cc2c(N3CCN(C(=O)Nc4ccc(OC(C)C)cc4)CC3)ncnc2cc1OCCCN1CCOCC1

- Cmax (in vivo [12]): 43 ng/mL
- AUC (in vivo [17]): 3080 ng·h/mL
- bioavailability (in vivo [18]): 38.8%
- bioavailability (in vivo [14]): 13.5%
- AUC (in vivo [19]): 4410 ng·h/mL
- Cmax (in vivo [20]): 414 ng/mL
- AUC (in vivo [15]): 387 ng·h/mL
- Cmax (in vivo [21]): 386 ng/mL
Structure (SMILES): COc1cc2c(N3CCN(C(=O)Nc4ccc(OC(C)C)cc4)CC3)ncnc2cc1OCCN1CCCCC1
